Several values for one entry are separate records, joined by “and”; a condition that tells them apart may be missing. Equal entries are not always repeated.
Legend:
Plasmodium falciparum [1] = assay: NOVARTIS: Inhibition of Plasmodium falciparum W2 (drug-resistant) proliferation in erythrocyte-based infection assay; assay type: functional, organism-based; conditions: read-out: EC50
[2] = NOVARTIS: Cytotoxicity against human hepatocellular carcinoma cell line (Huh7); assay type: toxicity, cell-based, Huh-7; conditions: Huh7 cells (hepatocellular carcinoma cell line)
Plasmodium falciparum [3] = assay: NOVARTIS: Inhibition of Plasmodium falciparum 3D7 (drug-susceptible) proliferation in erythrocyte-based infection assay; assay type: functional, organism-based

| SMILES | EC50 (Plasmodium falciparum [1]; Plasmodium falciparum, W2) | CC50 [2] | EC50 (Plasmodium falciparum [3]; Plasmodium falciparum, 3D7) | EC50 (Plasmodium falciparum [1]) | EC50 (Plasmodium falciparum [3]) |
| --- | --- | --- | --- | --- | --- |
| Cn1c(=O)c2c(nc3n2CC(O)CN3c2ccccc2)n(C)c1=O (stereo not given) | 0.162 µM | > 10 µM | 0.0726 µM |  |  |
| CC1Cc2ccc(F)cc2CN1C(=O)c1ccc(COc2ccccc2Br)o1 (stereo not given) | 6.35 µM | > 100 µM | 8.37 µM |  |  |
| Cc1cc(C(C)(C)C)cc(S(=O)(=O)NCCO)c1C | 0.377 µM | > 100 µM | > 12.5 µM |  |  |
| COc1ccc(-n2c(=S)[nH]c3cc(C(=O)Nc4cccc(C)c4)ccc3c2=O)cc1OC | > 1.25 µM | > 10 µM | > 1.04 µM |  |  |
| CCOc1ccc(Nc2ccnc3cc(Cl)ccc23)cc1 | 0.986 µM | > 100 µM | 0.956 µM |  |  |
| CNC(=O)c1ccc(NC(=O)Nc2ccc(C3=NCCCN3)cc2)cc1NC(=O)Nc1ccc(C2=NCCCN2)cc1 | 0.0783 µM | > 10 µM | 0.126 µM |  |  |
| CC1CCCN(C(=O)C2CCN(Cc3ccccn3)CC2)C1 (stereo not given) | 3.58 µM | > 100 µM | > 9.14 µM |  |  |
| CCOC(=O)C1=C(C)N=c2sc(=Cc3cccc(OCc4cccc5ccccc45)c3)c(=O)n2C1c1ccc(OC)cc1OC (stereo not given) | > 9.27 µM | > 100 µM | > 12.5 µM |  |  |
| O=C(NNc1c2ccccc2nc2ccccc12)Nc1ccccc1 | 0.756 µM | > 10 µM | 0.873 µM |  |  |
| CN(CCCNc1ccnc2cc(Cl)ccc12)C(=O)c1cccc(F)c1 | 0.49 µM | > 11.5 µM | 0.739 µM |  |  |
| O=c1nc(/C=C/c2ccc(Cl)cc2)oc2ccccc12 | > 1.66 µM | > 10 µM | 1.85 µM |  |  |
| Cc1nc(N2CCCCC2)c2c(C)c(C(=O)N3CCN(c4ccccc4F)CC3)sc2n1 | 1.3 µM | > 10 µM | > 1.54 µM |  |  |
| CCC(C)(C)n1nnnc1C(c1cc2ccc(C)cc2[nH]c1=O)N1CCN(c2ccccc2)CC1 (stereo not given) | 0.0614 µM | > 100 µM | 0.453 µM |  |  |
| CCCCSc1oc(C)nc1[P+](c1ccccc1)(c1ccccc1)c1ccccc1 | 0.583 µM | 2.64 µM | 0.203 µM |  |  |
| COc1ccc(OC)c(-c2ccc(O)c(CNC3CCCCCCC3)c2)c1 | 0.952 µM | > 10 µM | 0.767 µM |  |  |
| CC(=O)Nc1ccc2c(c1)CCCC2 | 0.191 µM | > 10 µM | 1.13 µM |  |  |
| COC(=O)c1ccc(Nc2nc(NCc3ccco3)c3ccccc3n2)cc1 | 0.433 µM | 18.8 µM | 0.279 µM |  |  |
| CC(C)(C)NC(=O)C(c1ccc(F)cc1)N(CCCN1CCOCC1)C(=O)c1ccc(-c2ccccc2)[nH]1 (stereo not given) | 0.562 µM | > 10 µM | 1.01 µM |  |  |

| SMILES | EC50 (Plasmodium falciparum [1]; Plasmodium falciparum, W2) | CC50 [2] | EC50 (Plasmodium falciparum [3]; Plasmodium falciparum, 3D7) | EC50 (Plasmodium falciparum [1]) | EC50 (Plasmodium falciparum [3]) |
| --- | --- | --- | --- | --- | --- |
| CN(/C=C/C1=[N+](C)c2ccc(Cl)cc2C1(C)C)c1ccccc1 |  | > 92.8 µM |  | 0.9 µM and 2.04 µM | 1.36 µM and 0.455 µM |
| COc1cc(OC)c(N(C)C(=O)c2cc3c(s2)-c2ccccc2S(=O)(=O)C3)cc1Cl | 0.179 µM | > 55.6 µM | 0.113 µM |  |  |
| COc1ccc(CNCCN2CCN(c3ccccc3)C[C@@H]2Cc2ccc(O)cc2)cc1 | 0.0549 µM | > 10 µM | 0.0521 µM |  |  |
| CCC(=O)Oc1ccccc1-c1nc2ccccn2c1NC(C)(C)CC(C)(C)C | 0.0349 µM | 1.65 µM | 0.743 µM |  |  |
| CC(C)(C)c1ccc2[nH]c3c(c2c1)CCCC3=NO | 0.831 µM | 20.9 µM | 5.02 µM |  |  |
| COc1ccc(Nc2nc(NN=Cc3cc([N+](=O)[O-])ccc3OC)nc(Nc3ccc([N+](=O)[O-])cc3)n2)cc1 | 0.762 µM | > 100 µM | 0.728 µM |  |  |
| CN(C)C=Nc1nn(C)cc1C(=O)Nc1ccc(F)c(Cl)c1 | 0.264 µM | > 100 µM | > 7.01 µM |  |  |
| CC(=O)Nc1c(C)cc(Cl)cc1Cl | 0.661 µM | > 10 µM | 1.45 µM |  |  |
| COc1ccc(S(=O)(=O)N(C)CCCNc2ccnc3cc(Cl)ccc23)cc1 | 0.197 µM | 10.1 µM | 0.115 µM |  |  |
| Cc1c[nH]c(CCNCc2ccc(OCC(O)CN(C)Cc3ccccc3)cc2)n1 (stereo not given) | 1.19 µM | 54.8 µM | 1.48 µM |  |  |
| O=C(CN1C(=O)C2C3CCC(C3)C2C1=O)N1CCCC(c2ncncc2-c2ccncc2)C1 (stereo not given) | > 1.25 µM | > 10 µM | 0.246 µM |  |  |
| COC(=O)c1cccc(NC(=O)/C(=C\c2cccc([N+](=O)[O-])c2)NC(=O)c2ccccc2OC)c1 | > 0.814 µM | > 10 µM | > 1.67 µM |  |  |
| CCc1ccccc1N1C(=O)CN(Cc2ccccc2)C1=S | 6 µM | 78.8 µM | > 12.5 µM |  |  |
| c1ccc(-c2nc(Nc3ccncc3)cc(-c3cccnc3)n2)cc1 | 1.44 µM | > 10 µM | 0.884 µM |  |  |
| CCc1c(C)c(=N)c2ccccc2n1C | 0.534 µM | > 100 µM | 0.701 µM |  |  |
| N#Cc1cccc(/C=C/C(=O)O)c1 | 0.752 µM | > 10 µM | 1.65 µM |  |  |
| C=C(Cl)CSc1nnc(CCNC(=O)c2ccc(C)cc2)n1-c1ccc(F)cc1 | 7.43 µM | > 100 µM | > 12.5 µM |  |  |

— ChEMBL document CHEMBL1156829 (Proc Natl Acad Sci U S A, 2008)
